The numbers were not newly measured in patent US11400098B2, “Method of treating microbial infections” (priority 2011, dated 2022), which cites them from elsewhere.

The data set concerns S. epidermidis. To be noted: background statement.

For `O=C(OOC(=O)c1ccccc1)c1ccccc1` [BPO, benzoyl peroxide], the “effect on growth of S. epidermidis” value was “strongly suppresses the growth”.
